Species: Rattus norvegicus
Assay: Open TG-GATES - Regimen: Single
Format: toxicity, organism-based, Sprague-Dawley
Design: regimen Single, gender Male, age 6 weeks
Conditions: in vivo, po, route gavage; for APTT / Bas / Eos / Fbg / Hb / Ht / Lym / MCH / MCHC / MCV / Mono / Neu / PT / Plat / RBC / Ret / WBC: tissue Blood; for KIDNEY_L / KIDNEY_R / KIDNEY_TOTAL: tissue Kidney; for LIVER: tissue Liver; for A/G / ALP / ALT / AST / BUN / CRE / Ca / Cl / DBIL / GLC / IP / K / LDH / Na / PL / RALB / TBIL / TC / TG / TP / gamma-GTP: tissue Plasma
[1] = 0 mg/kg, 3 h, dose level Control
[2] = 0 mg/kg, 6 h, dose level Control
[3] = 0 mg/kg, 9 h, dose level Control
[4] = 0 mg/kg, 24 h, dose level Control

## CC(=N)S [THIOACETAMIDE]
[1]
  TERMINAL_BW: 187.1 g
  APTT: 17.5 s
  Bas: 0%
  Eos: 0.6%
  Fbg: 224.8 mg/dL
  Hb: 13.3 g/dL
  Ht: 40%
  Lym: 77.6%
  MCH: 21.7 pg
  MCHC: 33.1%
  MCV: 65.4 fL
  Mono: 8.2%
  Neu: 13.4%
  PT: 12 s
  Plat: 101.8 x10_4/uL
  RBC: 611.6 x10_4/ul
  Ret: 8.4%
  WBC: 120.6 x10_2/uL
  KIDNEY_L: 0.9 g
  KIDNEY_R: 0.9 g
  KIDNEY_TOTAL: 1.7 g
  LIVER: 8.7 g
  A/G: 2.1
  ALP: 962.8 IU/L
  ALT: 34.4 IU/L
  AST: 69.2 IU/L
  BUN: 10.2 mg/dL
  CRE: 0.5 mg/dL
  Ca: 10.6 mg/dL
  Cl: 103.6 meq/L
  DBIL: 0 mg/dL
  GLC: 181.6 mg/dL
  IP: 9.1 mg/dL
  K: 4.8 meq/L
  LDH: 87.6 IU/L
  Na: 137.2 meq/L
  PL: 141.8 mg/dL
  RALB: 3.7 g/dL
  TBIL: 0.4 mg/dL
  TC: 79.8 mg/dL
  TG: 52 mg/dL
  TP: 5.5 g/dL
  gamma-GTP: 1.8 IU/L
[2]
  TERMINAL_BW: 185.6 g
  APTT: 17 s
  Bas: 0%
  Eos: 1%
  Fbg: 221.6 mg/dL
  Hb: 13.1 g/dL
  Ht: 39.7%
  Lym: 79%
  MCH: 21.6 pg
  MCHC: 33.1%
  MCV: 65.2 fL
  Mono: 7.8%
  Neu: 12.8%
  PT: 12.1 s
  Plat: 104 x10_4/uL
  RBC: 610.4 x10_4/ul
  Ret: 9.2%
  WBC: 126.6 x10_2/uL
  KIDNEY_L: 0.9 g
  KIDNEY_R: 0.9 g
  KIDNEY_TOTAL: 1.8 g
  LIVER: 8.3 g
  A/G: 2.4
  ALP: 828.6 IU/L
  ALT: 30.2 IU/L
  AST: 65.2 IU/L
  BUN: 10.8 mg/dL
  CRE: 0.6 mg/dL
  Ca: 10.2 mg/dL
  Cl: 103.8 meq/L
  DBIL: 0.012 mg/dL
  GLC: 182.4 mg/dL
  IP: 9.6 mg/dL
  K: 5.1 meq/L
  LDH: 72.2 IU/L
  Na: 136.6 meq/L
  PL: 140.6 mg/dL
  RALB: 3.8 g/dL
  TBIL: 0.4 mg/dL
  TC: 80.8 mg/dL
  TG: 61.8 mg/dL
  TP: 5.4 g/dL
  gamma-GTP: 1 IU/L
[3]
  TERMINAL_BW: 186.9 g
  APTT: 16.2 s
  Bas: 0%
  Eos: 1%
  Fbg: 226.8 mg/dL
  Hb: 13 g/dL
  Ht: 39.5%
  Lym: 75%
  MCH: 22 pg
  MCHC: 33%
  MCV: 66.7 fL
  Mono: 7.8%
  Neu: 16.2%
  PT: 12.4 s
  Plat: 107.7 x10_4/uL
  RBC: 592 x10_4/ul
  Ret: 9.4%
  WBC: 120.6 x10_2/uL
  KIDNEY_L: 0.9 g
  KIDNEY_R: 0.9 g
  KIDNEY_TOTAL: 1.8 g
  LIVER: 8 g
  A/G: 2
  ALP: 859.8 IU/L
  ALT: 32.2 IU/L
  AST: 62.8 IU/L
  BUN: 13 mg/dL
  CRE: 0.5 mg/dL
  Ca: 10.3 mg/dL
  Cl: 104.6 meq/L
  DBIL: 0.03 mg/dL
  GLC: 186.2 mg/dL
  IP: 9.8 mg/dL
  K: 4.8 meq/L
  LDH: 84.4 IU/L
  Na: 136.6 meq/L
  PL: 124 mg/dL
  RALB: 3.7 g/dL
  TBIL: 0.4 mg/dL
  TC: 71.8 mg/dL
  TG: 42 mg/dL
  TP: 5.6 g/dL
  gamma-GTP: 1.4 IU/L
[4]
  TERMINAL_BW: 198.1 g
  APTT: 17.2 s
  Bas: 0%
  Eos: 0.8%
  Fbg: 218.5 mg/dL
  Hb: 13.3 g/dL
  Ht: 40.6%
  Lym: 80.8%
  MCH: 21.1 pg
  MCHC: 32.9%
  MCV: 64.2 fL
  Mono: 6.2%
  Neu: 12.5%
  PT: 12.1 s
  Plat: 107.1 x10_4/uL
  RBC: 632.8 x10_4/ul
  Ret: 8.1%
  WBC: 135 x10_2/uL
  KIDNEY_L: 0.9 g
  KIDNEY_R: 0.9 g
  KIDNEY_TOTAL: 1.8 g
  LIVER: 9.7 g
  A/G: 2.2
  ALP: 883 IU/L
  ALT: 32.5 IU/L
  AST: 63.5 IU/L
  BUN: 17.2 mg/dL
  CRE: 0.5 mg/dL
  Ca: 10.4 mg/dL
  Cl: 102.8 meq/L
  DBIL: 0.0425 mg/dL
  GLC: 183.2 mg/dL
  IP: 7.2 mg/dL
  K: 5.4 meq/L
  LDH: 87.2 IU/L
  Na: 136 meq/L
  PL: 152.8 mg/dL
  RALB: 4 g/dL
  TBIL: 0.3 mg/dL
  TC: 77.2 mg/dL
  TG: 113.2 mg/dL
  TP: 5.8 g/dL
  gamma-GTP: 1.5 IU/L
5 mg/kg, 3 h, dose level Low
  TERMINAL_BW: 189.9 g
  APTT: 17.2 s
  Bas: 0%
  Eos: 0.6%
  Fbg: 225 mg/dL
  Hb: 13.1 g/dL
  Ht: 39.7%
  Lym: 81.4%
  MCH: 21.3 pg
  MCHC: 32.9%
  MCV: 64.6 fL
  Mono: 6.4%
  Neu: 11.4%
  PT: 12.1 s
  Plat: 105.8 x10_4/uL
  RBC: 614.6 x10_4/ul
  Ret: 9.2%
  WBC: 119.1 x10_2/uL
  KIDNEY_L: 0.9 g
  KIDNEY_R: 0.9 g
  KIDNEY_TOTAL: 1.7 g
  LIVER: 8.7 g
  A/G: 2.1
  ALP: 842.8 IU/L
  ALT: 31.2 IU/L
  AST: 64 IU/L
  BUN: 12.2 mg/dL
  CRE: 0.5 mg/dL
  Ca: 10.9 mg/dL
  Cl: 103.4 meq/L
  DBIL: 0 mg/dL
  GLC: 179.8 mg/dL
  IP: 9.2 mg/dL
  K: 4.4 meq/L
  LDH: 97.6 IU/L
  Na: 138.2 meq/L
  PL: 149.6 mg/dL
  RALB: 3.8 g/dL
  TBIL: 0.3 mg/dL
  TC: 85.8 mg/dL
  TG: 70.6 mg/dL
  TP: 5.6 g/dL
  gamma-GTP: 2 IU/L
5 mg/kg, 6 h, dose level Low
  TERMINAL_BW: 185.4 g
  APTT: 17.8 s
  Bas: 0%
  Eos: 1%
  Fbg: 237.8 mg/dL
  Hb: 13.2 g/dL
  Ht: 40.2%
  Lym: 70.4%
  MCH: 21.2 pg
  MCHC: 32.9%
  MCV: 64.4 fL
  Mono: 9.4%
  Neu: 19%
  PT: 12.4 s
  Plat: 113.6 x10_4/uL
  RBC: 625.4 x10_4/ul
  Ret: 9.1%
  WBC: 94.9 x10_2/uL
  KIDNEY_L: 0.9 g
  KIDNEY_R: 0.9 g
  KIDNEY_TOTAL: 1.8 g
  LIVER: 8.2 g
  A/G: 2.2
  ALP: 729.4 IU/L
  ALT: 29.8 IU/L
  AST: 62.4 IU/L
  BUN: 10.2 mg/dL
  CRE: 0.6 mg/dL
  Ca: 10.4 mg/dL
  Cl: 104.4 meq/L
  DBIL: 0.002 mg/dL
  GLC: 179.6 mg/dL
  IP: 9 mg/dL
  K: 4.9 meq/L
  LDH: 76 IU/L
  Na: 137.2 meq/L
  PL: 132.2 mg/dL
  RALB: 3.8 g/dL
  TBIL: 0.4 mg/dL
  TC: 80.2 mg/dL
  TG: 41.4 mg/dL
  TP: 5.6 g/dL
  gamma-GTP: 1.2 IU/L
5 mg/kg, 9 h, dose level Low
  TERMINAL_BW: 186.4 g
  APTT: 16.8 s
  Bas: 0%
  Eos: 0.6%
  Fbg: 216.2 mg/dL
  Hb: 12.8 g/dL
  Ht: 39.3%
  Lym: 79.2%
  MCH: 21.2 pg
  MCHC: 32.5%
  MCV: 65.1 fL
  Mono: 6.2%
  Neu: 13.8%
  PT: 12.3 s
  Plat: 102.7 x10_4/uL
  RBC: 606 x10_4/ul
  Ret: 9.4%
  WBC: 94.1 x10_2/uL
  KIDNEY_L: 0.9 g
  KIDNEY_R: 0.9 g
  KIDNEY_TOTAL: 1.7 g
  LIVER: 7.8 g
  A/G: 2.3
  ALP: 794.4 IU/L
  ALT: 32 IU/L
  AST: 61.6 IU/L
  BUN: 11.6 mg/dL
  CRE: 0.5 mg/dL
  Ca: 10.3 mg/dL
  Cl: 103.8 meq/L
  DBIL: 0.01 mg/dL
  GLC: 180 mg/dL
  IP: 9.8 mg/dL
  K: 4.4 meq/L
  LDH: 78.4 IU/L
  Na: 137.4 meq/L
  PL: 138.6 mg/dL
  RALB: 3.8 g/dL
  TBIL: 0.4 mg/dL
  TC: 84.4 mg/dL
  TG: 35.4 mg/dL
  TP: 5.5 g/dL
  gamma-GTP: 1.6 IU/L
5 mg/kg, 24 h, dose level Low
  TERMINAL_BW: 198.9 g
  APTT: 16.7 s
  Bas: 0%
  Eos: 0.8%
  Fbg: 219.6 mg/dL
  Hb: 13.3 g/dL
  Ht: 40.1%
  Lym: 78.6%
  MCH: 22 pg
  MCHC: 33.2%
  MCV: 66.3 fL
  Mono: 9.4%
  Neu: 11.4%
  PT: 12.3 s
  Plat: 102.8 x10_4/uL
  RBC: 606.4 x10_4/ul
  Ret: 8.7%
  WBC: 127.7 x10_2/uL
  KIDNEY_L: 0.9 g
  KIDNEY_R: 0.9 g
  KIDNEY_TOTAL: 1.8 g
  LIVER: 9.7 g
  A/G: 2.1
  ALP: 891 IU/L
  ALT: 38.8 IU/L
  AST: 68.6 IU/L
  BUN: 17 mg/dL
  CRE: 0.5 mg/dL
  Ca: 10.6 mg/dL
  Cl: 103.8 meq/L
  DBIL: 0.01 mg/dL
  GLC: 179.6 mg/dL
  IP: 7.6 mg/dL
  K: 5.3 meq/L
  LDH: 84.2 IU/L
  Na: 136.6 meq/L
  PL: 157.6 mg/dL
  RALB: 3.9 g/dL
  TBIL: 0.3 mg/dL
  TC: 85.6 mg/dL
  TG: 110.8 mg/dL
  TP: 5.8 g/dL
  gamma-GTP: 1.6 IU/L
